Measured values as given in PubChem BioAssay (NCI).
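These data come from cells grown in 96-well plates and exposed to compound for 48 hours at five concentrations. TGI marks complete inhibition of growth.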

Experiments:
Assay in all cases: NCI-60 cell line screen, 48 h
[1] = test system: HT29 colon
[2] = test system: PC-3 prostate
[3] = test system: TK-10 renal
[4] = test system: NCI-H460 lung
[5] = test system: MCF7 breast
[6] = test system: MDA-MB-231 breast
[7] = test system: LOX IMVI melanoma
[8] = test system: DU-145 prostate
[9] = test system: CAKI-1 renal
[10] = test system: IGROV1 ovarian
[11] = test system: SW-620 colon
[12] = test system: OVCAR-8 ovarian
[13] = test system: T-47D breast
[14] = test system: HCT-116 colon
[15] = test system: UACC-257 melanoma
[16] = test system: SF-268 CNS
[17] = test system: SNB-19 CNS
[18] = test system: NCI-H226 lung
[19] = test system: SK-OV-3 ovarian
[20] = test system: SNB-75 CNS

## CSC(=NCCCCN=C(NS(=O)(=O)c1ccc(Cl)cc1)SC)NS(=O)(=O)c1ccc(Cl)cc1
[1]
  TGI: > 100 µM
[2]
  TGI: > 100 µM
[3]
  TGI: > 100 µM
[4]
  TGI: > 100 µM
[5]
  TGI: > 100 µM
[6]
  TGI: > 100 µM
[7]
  TGI: > 100 µM
[8]
  TGI: > 100 µM
[9]
  TGI: > 100 µM
[10]
  TGI: > 100 µM
[11]
  TGI: > 100 µM
[12]
  TGI: > 100 µM
[13]
  TGI: > 100 µM
[14]
  TGI: > 100 µM
[15]
  TGI: > 100 µM
[16]
  TGI: > 100 µM
[17]
  TGI: > 100 µM

## c1ccc(C2C3=C(CCCC3)Nc3nc4cc5ccccc5cc4n32)cc1 (centres undefined)
[1]
  TGI: > 100 µM
[2]
  TGI: > 100 µM
[4]
  TGI: > 100 µM
[5]
  TGI: > 100 µM
[18]
  TGI: > 100 µM
[6]
  TGI: > 100 µM
[7]
  TGI: > 100 µM
[8]
  TGI: > 100 µM
[9]
  TGI: > 100 µM
[19]
  TGI: > 100 µM
[10]
  TGI: > 100 µM
[11]
  TGI: > 100 µM
[12]
  TGI: > 100 µM
[13]
  TGI: > 100 µM
[14]
  TGI: > 100 µM
[15]
  TGI: > 100 µM
[20]
  TGI: > 100 µM
[16]
  TGI: > 100 µM
[17]
  TGI: > 100 µM

## CC1=NN(C(=O)CC(=O)Nc2ccccc2Cl)C(=O)C1N=Nc1ccc(C(=O)O)cc1 (centres undefined)
[1]
  TGI: > 100 µM
[2]
  TGI: > 100 µM
[3]
  TGI: > 100 µM
[4]
  TGI: > 100 µM
[5]
  TGI: > 100 µM
[6]
  TGI: > 100 µM
[7]
  TGI: > 100 µM
[8]
  TGI: > 100 µM
[9]
  TGI: > 100 µM
[10]
  TGI: > 100 µM
[11]
  TGI: > 100 µM
[12]
  TGI: > 100 µM
[13]
  TGI: > 100 µM
[14]
  TGI: > 100 µM
[15]
  TGI: > 100 µM
[16]
  TGI: > 100 µM
[17]
  TGI: > 100 µM

## CN(/N=C/c1cccs1)c1ccc(Cl)cc1[N+](=O)[O-]
[1]
  TGI: > 100 µM
[2]
  TGI: > 100 µM
[3]
  TGI: > 100 µM
[4]
  TGI: > 100 µM
[5]
  TGI: > 100 µM
[18]
  TGI: 97.3 µM
[6]
  TGI: > 100 µM
[8]
  TGI: > 100 µM
[9]
  TGI: > 100 µM
[19]
  TGI: > 100 µM
[10]
  TGI: > 100 µM
[11]
  TGI: > 100 µM
[12]
  TGI: > 100 µM
[13]
  TGI: > 100 µM
[14]
  TGI: > 100 µM
[15]
  TGI: > 100 µM
[20]
  TGI: > 100 µM
[16]
  TGI: > 100 µM
[17]
  TGI: > 100 µM

## COc1[nH]c(C(Cl)(Cl)Cl)c(Cl)c(=O)c1Cl
[1]
  TGI: > 100 µM
[2]
  TGI: > 100 µM
[3]
  TGI: > 100 µM
[4]
  TGI: > 100 µM
[5]
  TGI: > 100 µM
[18]
  TGI: > 100 µM
[6]
  TGI: > 100 µM
[7]
  TGI: > 100 µM
[8]
  TGI: > 100 µM
[9]
  TGI: > 100 µM
[19]
  TGI: > 100 µM
[10]
  TGI: > 100 µM
[11]
  TGI: > 100 µM
[12]
  TGI: > 100 µM
[13]
  TGI: > 100 µM
[14]
  TGI: > 100 µM
[15]
  TGI: > 100 µM
[17]
  TGI: > 100 µM

## CC(=O)Nc1ccc(C(=O)NN2C(=O)C(Cl)C2c2cc(Br)ccc2O)cc1 (centres undefined)
[1]
  TGI: > 100 µM
[2]
  TGI: > 100 µM
[3]
  TGI: > 100 µM
[4]
  TGI: > 48.5 µM
[5]
  TGI: > 100 µM
[18]
  TGI: 36.1 µM
[6]
  TGI: > 100 µM
[8]
  TGI: > 100 µM
[19]
  TGI: > 100 µM
[10]
  TGI: > 100 µM
[11]
  TGI: > 100 µM
[12]
  TGI: > 100 µM
[13]
  TGI: > 100 µM
[14]
  TGI: > 100 µM
[15]
  TGI: > 100 µM
[20]
  TGI: > 100 µM
[16]
  TGI: > 100 µM
[17]
  TGI: > 100 µM

## CCCCCCCC/C=C\CCCCCCC(F)C(=O)O (centres undefined)
[1]
  TGI: > 12.5 µM
[2]
  TGI: > 12.5 µM
[3]
  TGI: > 12.5 µM
[5]
  TGI: > 12.5 µM
[18]
  TGI: > 12.5 µM
[6]
  TGI: > 12.5 µM
[7]
  TGI: > 12.5 µM
[8]
  TGI: > 12.5 µM
[9]
  TGI: > 12.5 µM
[19]
  TGI: > 12.5 µM
[10]
  TGI: > 12.5 µM
[11]
  TGI: > 12.5 µM
[12]
  TGI: > 12.5 µM
[13]
  TGI: > 12.5 µM
[14]
  TGI: > 12.5 µM
[15]
  TGI: > 12.5 µM
[20]
  TGI: > 12.5 µM
[16]
  TGI: > 12.5 µM
[17]
  TGI: > 12.5 µM

## CC1(C)CC[C@]2(C(=O)O)CC[C@]3(C)C(=CC[C@@H]4[C@@]5(C)C[C@H](O)[C@H](O)[C@@](C)(CO)C5=CC[C@]43C)[C@@H]2C1
[1]
  TGI: > 100 µM
[2]
  TGI: > 100 µM
[3]
  TGI: > 100 µM
[4]
  TGI: 72.2 µM
[5]
  TGI: > 100 µM
[6]
  TGI: > 100 µM
[7]
  TGI: > 100 µM
[8]
  TGI: > 100 µM
[9]
  TGI: > 100 µM
[19]
  TGI: > 100 µM
[10]
  TGI: > 100 µM
[11]
  TGI: > 100 µM
[12]
  TGI: > 100 µM
[13]
  TGI: > 100 µM
[14]
  TGI: > 100 µM
[15]
  TGI: > 100 µM
[20]
  TGI: > 100 µM
[16]
  TGI: > 100 µM
[17]
  TGI: > 100 µM

## COc1ccc(CNc2nc3cc(C(F)(F)F)ccc3nc2C(=O)O)cc1OC
[1]
  TGI: > 100 µM
[2]
  TGI: > 100 µM
[4]
  TGI: > 100 µM
[5]
  TGI: 95 µM
[18]
  TGI: > 100 µM
[6]
  TGI: > 100 µM
[7]
  TGI: > 100 µM
[8]
  TGI: > 100 µM
[9]
  TGI: > 100 µM
[19]
  TGI: > 100 µM
[10]
  TGI: 66 µM
[11]
  TGI: > 100 µM
[12]
  TGI: > 100 µM
[13]
  TGI: > 100 µM
[14]
  TGI: 75.4 µM
[15]
  TGI: > 100 µM
[20]
  TGI: > 100 µM
[17]
  TGI: > 100 µM

## Cc1ccc2c(=O)cc(-c3cccc4ccccc34)[nH]c2n1
[1]
  TGI: 0.0658 µM
[2]
  TGI: > 43 µM
[4]
  TGI: > 100 µM
[5]
  TGI: > 43.1 µM
[18]
  TGI: 35.2 µM
[6]
  TGI: > 100 µM
[7]
  TGI: 9.5 µM
[8]
  TGI: > 74.7 µM
[9]
  TGI: > 100 µM
[19]
  TGI: 2.64 µM
[10]
  TGI: > 100 µM
[11]
  TGI: > 100 µM
[12]
  TGI: 0.305 µM
[13]
  TGI: > 100 µM
[14]
  TGI: > 34.8 µM
[15]
  TGI: > 100 µM
[16]
  TGI: > 32.4 µM
[17]
  TGI: > 100 µM

## O=C1C2=Cc3ccccc3OC2(O)Oc2cc(O)ccc21 (centres undefined)
[1]
  TGI: > 100 µM
[2]
  TGI: > 100 µM
[3]
  TGI: > 100 µM
[5]
  TGI: > 100 µM
[18]
  TGI: > 100 µM
[6]
  TGI: > 100 µM
[7]
  TGI: > 100 µM
[8]
  TGI: > 100 µM
[9]
  TGI: > 100 µM
[19]
  TGI: > 100 µM
[10]
  TGI: > 100 µM
[11]
  TGI: > 100 µM
[12]
  TGI: > 100 µM
[13]
  TGI: > 100 µM
[14]
  TGI: > 100 µM
[15]
  TGI: > 100 µM
[20]
  TGI: > 100 µM
[16]
  TGI: > 100 µM

## N#CC1=C(S)N(C2OC(CO)C(O)C(O)C2O)C(c2ccccc2)=CC1c1ccccc1 (centres undefined)
[1]
  TGI: > 100 µM
[2]
  TGI: > 100 µM
[3]
  TGI: > 100 µM
[4]
  TGI: > 100 µM
[5]
  TGI: > 100 µM
[18]
  TGI: > 100 µM
[6]
  TGI: > 100 µM
[7]
  TGI: 86.6 µM
[8]
  TGI: > 100 µM
[9]
  TGI: > 100 µM
[10]
  TGI: > 100 µM
[11]
  TGI: > 100 µM
[12]
  TGI: > 100 µM
[13]
  TGI: 96.7 µM
[14]
  TGI: > 100 µM
[15]
  TGI: > 100 µM
[20]
  TGI: > 100 µM
[16]
  TGI: > 100 µM
[17]
  TGI: > 100 µM
